Measurements from PubChem BioAssay AID256 (DTP/NCI, 2004).
Where “and” joins values, the source holds several entries; their conditions need not be identical. Equal values may be shown once. Inconclusive results and toxic doses are left out. How the source made its calls: active means survival T/C of 150% or more; inactive means T/C below 125% in these data.

System: CD2F1 mice, L1210 leukemia ip, survival T/C
Test: NCI In Vivo Anticancer Drug Screen. Data for tumor model L1210 Leukemia (intraperitoneal) in CD2F1 (CDF1) mice
Conditions: higher = longer survival
How it was run: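 Tumor-bearing mice (transplanted tumor) were split into treated and vehicle control groups, and the measured endpoint of each treated group was divided by that of its vehicle controls.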

[1] = endpoint: mean survival time, dose: 25.0 mg/kg/injection, schedule: Q04DX002 (ip), vehicle: saline with Tween-80
[2] = endpoint: mean survival time, dose: 50.0 mg/kg/injection, schedule: Q04DX002 (ip), vehicle: saline with Tween-80
[3] = endpoint: mean survival time, dose: 100.0 mg/kg/injection, schedule: Q04DX002 (ip), vehicle: saline with Tween-80
[4] = endpoint: mean survival time, dose: 100.0 mg/kg/injection, schedule: Q04DX002 (ip), vehicle: saline
[5] = endpoint: mean survival time, dose: 100.0 mg/kg/injection, schedule: Q04DX003 (ip), vehicle: saline with Tween-80
[6] = endpoint: mean survival time, dose: 200.0 mg/kg/injection, schedule: Q04DX003 (ip), vehicle: saline with Tween-80
[7] = endpoint: mean survival time, dose: 400.0 mg/kg/injection, schedule: Q04DX003 (ip), vehicle: saline with Tween-80
[8] = endpoint: mean survival time, dose: 100.0 mg/kg/injection, schedule: Q01DX009 (ip), vehicle: saline with Tween-80
[9] = endpoint: mean survival time, dose: 200.0 mg/kg/injection, schedule: Q01DX009 (ip), vehicle: saline with Tween-80
[10] = endpoint: mean survival time, dose: 400.0 mg/kg/injection, schedule: Q01DX009 (ip), vehicle: saline with Tween-80
[11] = endpoint: mean survival time, dose: 100.0 mg/kg/injection, schedule: Q01DX001 (ip), vehicle: saline with Tween-80
[12] = endpoint: mean survival time, dose: 200.0 mg/kg/injection, schedule: Q01DX001 (ip), vehicle: saline with Tween-80
[13] = endpoint: mean survival time, dose: 400.0 mg/kg/injection, schedule: Q01DX001 (ip), vehicle: saline with Tween-80
[14] = endpoint: mean survival time, dose: 200.0 mg/kg/injection, schedule: Q04DX002 (ip), vehicle: saline with Tween-80
[15] = endpoint: mean survival time, dose: 400.0 mg/kg/injection, schedule: Q04DX002 (ip), vehicle: saline with Tween-80
[16] = endpoint: mean survival time, dose: 25.0 mg/kg/injection, schedule: Q01DX009 (ip), vehicle: Klucel (hydroxypropylcellulose) (HPC)
[17] = endpoint: mean survival time, dose: 50.0 mg/kg/injection, schedule: Q01DX009 (ip), vehicle: Klucel (hydroxypropylcellulose) (HPC)
[18] = endpoint: mean survival time, dose: 50.0 mg/kg/injection, schedule: Q01DX009 (ip), vehicle: saline with Tween-80
[19] = endpoint: mean survival time, dose: 100.0 mg/kg/injection, schedule: Q01DX009 (ip), vehicle: Klucel (hydroxypropylcellulose) (HPC)

Measured: T/C

CC1=NCCCN=C(C)CC[N-]CCC[N-]CC1.[Ni+2].[O-][Cl+3]([O-])([O-])O
inactive: [1] 103 % of control | [2] 115 % of control | [3] 103 % of control | [4] 124 % of control

C1CCC2(CCC34CCCCC3CCCC4)CCCCC2C1 (stereo unspecified)
inactive: [5] 101 % of control | [6] 102 % of control | [7] 102 % of control

CCN(CC)CCOc1ccc(NC(=O)c2ccccc2)cc1
inactive: endpoint: mean survival time, dose: 6.25 mg/kg/injection, schedule: Q04DX003 (ip), vehicle: saline 101 % of control | endpoint: mean survival time, dose: 12.5 mg/kg/injection, schedule: Q04DX003 (ip), vehicle: saline 101 % of control | endpoint: mean survival time, dose: 25.0 mg/kg/injection, schedule: Q04DX003 (ip), vehicle: saline 104 % of control

CC(=O)OCC(O)C(O)C(O)C(O)CO (stereo unspecified)
inactive: [8] 109 % of control | [9] 94 % of control | [10] 96 % of control

c1cc2c(cc1CC1CCNC1)OCO2 (stereo unspecified)
inactive: endpoint: mean survival time, dose: 5.0 mg/kg/injection, schedule: Q01DX001 (ip), vehicle: saline 103 % of control | endpoint: mean survival time, dose: 5.0 mg/kg/injection, schedule: Q01DX009 (ip), vehicle: saline sonified 100 % of control | endpoint: mean survival time, dose: 5.0 mg/kg/injection, schedule: Q04DX003 (ip), vehicle: saline 101 % of control | endpoint: mean survival time, dose: 10.0 mg/kg/injection, schedule: Q01DX001 (ip), vehicle: saline 103 % of control | endpoint: mean survival time, dose: 10.0 mg/kg/injection, schedule: Q01DX009 (ip), vehicle: saline sonified 91 % of control | endpoint: mean survival time, dose: 10.0 mg/kg/injection, schedule: Q04DX003 (ip), vehicle: saline 102 % of control | endpoint: mean survival time, dose: 20.0 mg/kg/injection, schedule: Q01DX001 (ip), vehicle: saline 98 % of control | endpoint: mean survival time, dose: 20.0 mg/kg/injection, schedule: Q01DX009 (ip), vehicle: saline sonified 100 % of control | endpoint: mean survival time, dose: 20.0 mg/kg/injection, schedule: Q04DX003 (ip), vehicle: saline 101 % of control

O=C(O)CCCCCCCCCO
inactive: [11] 91 % of control | [12] 87 % of control | [13] 86 % of control

Cc1cn(CC(O)c2cc3ccccc3[nH]2)c(=O)[nH]c1=O (stereo unspecified)
inactive: [3] 97 % of control | [14] 97 % of control | [15] 93 % of control

Nc1c(Cl)c(Cl)nc(C(=O)O)c1Cl
inactive: [16] 98 % of control | endpoint: mean survival time, dose: 25.0 mg/kg/injection, schedule: Q01DX009 (ip), vehicle: saline with Tween-80 100 % of control | [17] 98 % of control | [18] 94 % of control | endpoint: mean survival time, dose: 50.0 mg/kg/injection, schedule: Q01DX009 (ip), vehicle: saline 97 % of control | [19] 90 % of control | [8] 97 % of control | endpoint: mean survival time, dose: 100.0 mg/kg/injection, schedule: Q01DX009 (ip), vehicle: saline 97 % of control | endpoint: mean survival time, dose: 200.0 mg/kg/injection, schedule: Q01DX009 (ip), vehicle: Klucel (hydroxypropylcellulose) (HPC) 100 % of control | [9] 97 % of control | endpoint: mean survival time, dose: 200.0 mg/kg/injection, schedule: Q01DX009 (ip), vehicle: saline 101 % of control | [10] 101 % of control

Cc1ccc(O[Si](C)(C)C)cc1
inactive: [8] 100 % of control | [5] 103 % of control | [6] 87 % of control | [7] 89 % of control

CCCCCOC(=O)COc1ccc(F)cc1
inactive: [3] 97 % of control | [14] 105 % of control | [15] 101 % of control

CCC[CH2][Sn]1([CH2]CCC)[O]C2C(CO)OC(n3ccc(=O)[nH]c3=O)C2[O]1 (stereo unspecified)
inactive: endpoint: mean survival time, dose: 1.56 mg/kg/injection, schedule: Q01DX005 (ip), vehicle: other 98 % of control | endpoint: mean survival time, dose: 3.13 mg/kg/injection, schedule: Q01DX005 (ip), vehicle: other 102 % of control | endpoint: mean survival time, dose: 6.25 mg/kg/injection, schedule: Q01DX005 (ip), vehicle: other 112 % of control | endpoint: mean survival time, dose: 12.5 mg/kg/injection, schedule: Q01DX005 (ip), vehicle: other 100 % of control

CC1(O)CCC(C)(O)CC1 (stereo unspecified)
inactive: [1] 107 % of control and 103 % of control | [2] 95 % of control and 98 % of control | [3] 107 % of control and 98 % of control | [14] 103 % of control

O=C1OCC2C(=O)OCC12 (stereo unspecified)
inactive: endpoint: mean survival time, dose: 50.0 mg/kg/injection, schedule: Q01DX001 (ip), vehicle: saline 107 % of control | endpoint: mean survival time, dose: 100.0 mg/kg/injection, schedule: Q01DX001 (ip), vehicle: saline 101 % of control | endpoint: mean survival time, dose: 200.0 mg/kg/injection, schedule: Q01DX001 (ip), vehicle: saline 107 % of control | endpoint: mean survival time, dose: 400.0 mg/kg/injection, schedule: Q01DX001 (ip), vehicle: saline 109 % of control

N=C(N)N
inactive: [18] 96 % of control | [8] 98 % of control | [5] 96 % of control | [9] 96 % of control | [6] 94 % of control

O=C1C2=C(CCCC2)CN1c1ccccc1
inactive: [18] 98 % of control | [8] 98 % of control | [9] 107 % of control

CC(C)=CCNc1ncnc2c1ncn2C1OC(COP(=O)(O)O)C(O)C1O (stereo unspecified)
inactive: endpoint: mean survival time, dose: 25.0 mg/kg/injection, schedule: Q01DX005 (ip), vehicle: water 103 % of control | endpoint: mean survival time, dose: 50.0 mg/kg/injection, schedule: Q01DX005 (ip), vehicle: water 104 % of control | endpoint: mean survival time, dose: 100.0 mg/kg/injection, schedule: Q01DX005 (ip), vehicle: water 103 % of control | endpoint: mean survival time, dose: 200.0 mg/kg/injection, schedule: Q01DX005 (ip), vehicle: water 114 % of control

CC1(C)N=C(N)N=C(N)N1c1ccc(OCCOc2ccc(S(=O)(=O)F)cc2)c(Cl)c1
inactive: endpoint: mean survival time, dose: 25.0 mg/kg/injection, schedule: Q04DX003 (ip), vehicle: saline with Tween-80 114 % of control | [5] 120 % of control

CCCCCCCCCCCCCCCCCC[n+]1cccc(C(=O)N2CCOCC2)c1
inactive: [16] 90 % of control | [17] 95 % of control | [19] 92 % of control

CCSCCN1C(=O)C2C3CCC(O3)C2C1=O (stereo unspecified)
inactive: [3] 93 % of control | [14] 93 % of control

COc1ccc(C(O)(c2ccccc2)C(OC(=O)c2cc([N+](=O)[O-])cc([N+](=O)[O-])c2)c2ccccc2)cc1 (stereo unspecified)
inactive: [11] 87 % of control | [12] 94 % of control | [13] 91 % of control

O=C(Nc1ccc(Cl)cc1)OCCN1CCOCC1
inactive: [8] 90 % of control | [5] 93 % of control | [9] 92 % of control | [6] 94 % of control | [10] 91 % of control | [7] 89 % of control

O=C(O)c1c2c(nc3c(Cl)cccc13)-c1ccccc1C2
inactive: [8] 102 % of control | [9] 107 % of control

CC1(CO)CCCC2(C)C3=CC(=O)CCC3CCC12 (stereo unspecified)
inactive: [11] 95 % of control | [12] 101 % of control | [13] 97 % of control

CCOC(=O)C1CC(=O)C2/C(=C(\O)c3ccccc3)C=C([N+](=O)[O-])C1C2[N+](=O)[O-] (stereo unspecified)
inactive: [3] 94 % of control | [14] 94 % of control | [15] 96 % of control

CN1CC2C(O)CCC1CC2O (stereo unspecified)
inactive: [4] 105 % of control | endpoint: mean survival time, dose: 200.0 mg/kg/injection, schedule: Q04DX002 (ip), vehicle: saline 90 % of control

CC(=O)O.[Ni]
inactive: endpoint: mean survival time, dose: 40.0 mg/kg/injection, schedule: Q01DX001 (ip), vehicle: saline 118 % of control

COC(=O)Nc1nc2ccc(SC)cc2c(=O)[nH]1
inactive: endpoint: median survival time, dose: 25.0 mg/kg/injection, schedule: Q01DX009 (ip), vehicle: Klucel (hydroxypropylcellulose) (HPC) 98 % of control | endpoint: median survival time, dose: 50.0 mg/kg/injection, schedule: Q01DX009 (ip), vehicle: Klucel (hydroxypropylcellulose) (HPC) 98 % of control | endpoint: median survival time, dose: 100.0 mg/kg/injection, schedule: Q01DX009 (ip), vehicle: Klucel (hydroxypropylcellulose) (HPC) 98 % of control | endpoint: median survival time, dose: 200.0 mg/kg/injection, schedule: Q01DX009 (ip), vehicle: Klucel (hydroxypropylcellulose) (HPC) 112 % of control

COc1ccc(C2(C(=O)O)CC(C)=C(C)CC2C(=O)O)cc1 (stereo unspecified)
inactive: [18] 88 % of control | [8] 93 % of control | [5] 97 % of control | [6] 95 % of control

CN1C(=O)C2C3CCC(C)(O3)C2C1=O (stereo unspecified)
inactive: [5] 98 % of control | [6] 96 % of control | [7] 98 % of control

CC1NC(=O)OC12CCCCC2 (stereo unspecified)
inactive: [8] 101 % of control | [9] 107 % of control
